Like-named read-outs stand apart in the source and are kept apart here.
What was measured:
[1] = system: human melanoma cell line, LOX; test: Melanoma test using nude mice protocol (survival, T/C); assay type: in vivo
Text: The present invention will now be described by way of example with reference to the accompanying drawings in which: Figures 1-4 are survival plots of cancer-bearing mice treated with the dyes of this invention, compared to a control group of such mice left untreated. In these plots, "% survival" means the percentage of the total group (treated "T" or control "C") still surviving on the day in question. The 50% data point is selected for the T/C calculation, as being the point that is statistically meaningful. Effectiveness against human cancer can be inferred by tests in the nude mouse-human xenograft model, hereinafter "nude mice protocol". […] 899-903, especially p. 889 (April 1985). Nude mice, that is, those deficient in thymic functions, bred and maintained in pathogen free conditions [see J. Natl. Cancer Inst. 51:615-619 (1973)] were used in in vivo experiments. For each experiment, nude mice from the same litter and of the same sex which were over 3 months old and weighed at least 25g were injected or implanted with cancer cells. A human melanoma cell line, LOX, was used that grows rapidly when inoculated into the peritoneal cavity of the athymic mice. Tumors which had been passaged subcutaneously in athymic mice were excised under sterile conditions and converted to a single cell suspension using a metal grid with a 4 mm mesh. Red blood cells were then lysed by incubation with 0.17 molar ammonium chloride at 4°C for 30 minutes. Cells were then scored for viability with trypan blue and 5 million viable cells made up in 0.2 ml of Dulbecco modified Eagles' medium (DME) were injected intraperitoneally (IP) into a group of male athymic Swiss nu/nu mice (day 0). The mice were then randomly allocated into treatment and control groups (5% dextrose) and treatment, by intraperitoneal injection commenced the following day. In Example 6, five mice received 5 mg/kg of the drug T-5, Table I, administered Monday, Wednesday & Friday of each week for a total of 11 injections. Five mice received the same volume of the control 5% dextrose solution on the same days. […]

[2] = system: human ovarian carcinoma line OVCAR-3; test: Ovarian carcinoma (OVCAR-3) test using nude mice protocol (survival, T/C); assay type: in vivo; conditions: for T/C: female nude mice, OVCAR-3 xenograft, three injections per week for 6 weeks (Fig. 3)
Text: The present invention will now be described by way of example with reference to the accompanying drawings in which: Figures 1-4 are survival plots of cancer-bearing mice treated with the dyes of this invention, compared to a control group of such mice left untreated. In these plots, "% survival" means the percentage of the total group (treated "T" or control "C") still surviving on the day in question. The 50% data point is selected for the T/C calculation, as being the point that is statistically meaningful. Nude mice, that is, those deficient in thymic functions, bred and maintained in pathogen free conditions [see J. Natl. Cancer Inst. 51:615-619 (1973)] were used in in vivo experiments. For each experiment, nude mice from the same litter and of the same sex which were over 3 months old and weighed at least 25g were injected or implanted with cancer cells. Examples 6 and 7 were repeated, except they were administered to female nude mice (aged 8-12 weeks) xenografted with human ovarian carcinoma line OVCAR-3. Eight mice in Example 6, and 8 mice in Example 7 were selected for treatment with the thiopyrylium, in an amount of 2.5 and 5 mg/kg respectively, administered IP 1 day after the cancer cells were injected. This was repeated as follows: Three injections per week for 6 weeks. Eight mice were used as the control group and were injected with 0.25 ml of 5% dextrose in water.

MB49 tumor cells [3] = test: Mouse bladder carcinoma, tumor cells and drug given IP (survival, T/C); assay type: in vivo; conditions: normal male BDFI mice, MB49 cells IP
Text: The present invention will now be described by way of example with reference to the accompanying drawings in which: Figures 1-4 are survival plots of cancer-bearing mice treated with the dyes of this invention, compared to a control group of such mice left untreated. In these plots, "% survival" means the percentage of the total group (treated "T" or control "C") still surviving on the day in question. The 50% data point is selected for the T/C calculation, as being the point that is statistically meaningful. MB49 tumor cells, that is, mouse carcinoma cells induced by the carcinogen 7,12-dimethyl benz[a]anthracene, were obtained by conventional processes and injected intraperitoneally into normal male BDFI mice (5 million/mouse). Each drug treated group and control group had 5 mice. In example 8, 5 mg/kg of T-5 was administered 3 times per week for three weeks, starting Day 1. In Example 9, it was 3 mg/kg three times per week for 3 weeks.

L1210 leukemia cells = test: In vitro IC50, suspension culture, cell count by Coulter Counter; assay type: cell-based; conditions: compound present for 48 hours (four cell doubling times), read-out: IC50 L1210 Mouse Lymphoma
Protocol: (§1) Although these examples were not tested in animal models, their similar efficacy in human melanoma and differentiated carcinomas is predicated from the fact they had similar in vitro results compared to T-5. The in vitro tests were run as follows, to ascertain the IC₅₀ concentrations. (IC₅₀ is the in vitro concentration that kills one-half the cell line against which the compound is tested. The smaller the concentration, the higher the toxicity.)
(§2) For the IC₅₀ values for the human lung carcinoma line, an adhering monolayer culture was used. Two days prior to plating, a number of cells obtained from the American Type Tissue Culture Collection was selected to grow as a stock, the number being that which would ensure the cells had not reached their plateau at the time of the in vitro test. On day 1 of the assay, asynchronous exponentially growing cells from this stock were suspended in a conventional complete medium comprising RPMI 1640 medium supplemented with 5% (v/v) fetal calf serum and 5% (v/v) NV serum obtained from Collaborative Research, and 20mM HEPES buffer, i.e., 4-(2-hydroxyethyl)-1-piperazineethanesulfonic acid. This was plated into a conventional 96-well tissue culture plate using a Cetus/Perkin Elmer automated pipetting device with a dual supply manifold. The cells were then incubated for 48 hours at 37°C in a humidified atmosphere containing 5% CO₂. Selected cells were then incubated under red light for 3 hours in the presence of varying amounts of the compound of interest at 37°C in a humidified incubator containing 5% CO₂. Compounds were tested over a 6-log range of concentrations. The drug treated cells were then rinsed one time with complete medium as set forth above, and incubated in complete medium the length of time appropriate to achieve four cell-doubling times (roughly 7 days for these cell lines). The medium was removed and the cells stained for 1-2 hours at 37°C with 0.1% (w/v) neutral red dye obtained from Eastman Kodak Co., dissolved in phosphate buffered saline (PBS) (without calcium or magnesium cations) at a pH of 6.85. The cells were rinsed twice with the same PBS and dried. Excess neutral red dye was eluted from each well with 50% (v/v) ethanol in 1% (v/v) aqueous glacial acetic acid. The absorbency of each well was quantitated using a Perkin-Elmer absorbence densitameter set at 540 nm. The percent of inhibition of cell growth for a given concentration of compound was calculated using the equation: [formula] where At = absorbence of the cells treated with the candidate drug, Au = absorbence of the control treated with solvent only, and Ab = absorbence of the media and well only (background). […] The plotted data was then fitted to the curve for the function: F(x) = 100 - [100(X/A)^B/(1+(X/A)^B)] where x = the concentration of the test compound, A = the IC₅₀ value (50% inhibition on the plot) and B = the exponent of the fitted function.
To determine the IC₅₀ for the L1210 leukemia cells, a suspension culture was used. The procedure for the monolayer culture was followed, except that the cells were seeded at a density of 3 X 10⁴ cells/ml in the RPMI 1640 medium supplemented this time with 10% (v/v) NV SERUM, no calf serum, and 20mM HEPES buffer, with the compound of interest already added. These were added immediately to a conventional 24-well culture plate and incubated for a four cell doubling time (48 hours for this cell line). Cell numbers were quantitated using the Model ZF Coulter Counter. F(x) was obtained from the equation: [formula] where Nt = number of treated cells detected, never less than No, Nu = number of cells detected in the control that were untreated except for the solvent, and No = number of cells initially seeded.

[4] = system: human lung carcinoma line; test: In vitro IC50, adhering monolayer culture, neutral red staining; assay type: cell-based; conditions: 3 hours drug exposure under red light, then about 7 days growth, read-out: IC50 Lung Adeno-carcinoma
Protocol: as §1, §2

MB49 tumor cells [5] = test: Mouse bladder carcinoma, tumor cells mixed with drug before instillation into the bladder (bladder weight); assay type: in vivo; conditions: 21 days after tumor initiation; from mean bladder weights vs controls; MB49 cells (4 X 10⁶) mixed with 0.05 mg/ml drug before instillation into the mouse bladder
Protocol: These values were calculated by dividing the difference between the mean weight of bladders from controls (water-treated animals) and mean weight of bladders of drug-treated animals by the mean weight of bladders from control animals and multiplying this fraction by 100. (In this experiment, the drug was administered by mixing the MB49 tumor cells (4 X 10⁶) with 0.05 mg/ml of the drug prior to instillation of the cell suspension into the mouse bladder.)

CN(C)c1ccc(-c2cc(-c3ccc(N)cc3)[s+]c(-c3ccc(N)cc3)c2)cc1.[Cl-] [Compound T-5, 2,6-Bis(4-aminophenyl)-4-[4-(N,N-dimethyl-amino)phenyl]thiopyrylium chloride]
T/C ([1]; male athymic Swiss nu/nu mice, LOX cells IP, 5 mg/kg IP Monday, Wednesday & Friday, 11 injections, 50% survival point (Fig. 1)): 366%
Survival (T/C) ([1]; male athymic Swiss nu/nu mice, LOX cells IP, 8 mg/kg IP Wednesday and Saturday for 3 weeks (Fig. 2)): 338%
T/C ([2]; 2.5 mg/kg IP): > 450%
T/C ([2]; 5 mg/kg IP): > 450%
T/C (MB49 tumor cells [3]; 3 mg/kg three times per week for 3 weeks (Example 9, Fig. 4)): 344%
T/C (MB49 tumor cells [3]; 5 mg/kg 3 times per week for three weeks (Example 8, Fig. 4)): 244%
IC50 (L1210 leukemia cells; Mus musculus, L1210, 48 h): 220 nM
IC50 (L1210 leukemia cells): 140 nM
IC50 [4]: 60 to 80 nM
IC50 ([4]; Homo sapiens): 40 nM

Nc1ccc(-c2cc(-c3ccccc3)cc(-c3ccc(N)cc3)[s+]2)cc1 [Compound T-3, 2,6-Bis(4-aminophenyl)-4-phenylthiopyrylium chloride]
IC50 (L1210 leukemia cells; Mus musculus, L1210, 48 h): 33 nM
IC50 ([4]; Homo sapiens): 17 nM

CN(C)c1ccc(-c2cc(-c3ccccc3)[s+]c(-c3ccc(N(C)C)cc3)c2)cc1 [Compound T-6]
average inhibition in tumor growth (MB49 tumor cells [5]): 21.6%

CN(C)c1ccc(-c2cc(-c3cccc(N)c3)[s+]c(-c3cccc(N)c3)c2)cc1 [Compound T-1, 2,6-Bis(3-aminophenyl)-4-[4-(dimethyl-amino)phenyl]thiopyrylium chloride]
IC50 (L1210 leukemia cells; Mus musculus, L1210, 48 h): 38 nM
IC50 ([4]; Homo sapiens): 370 nM

CN(C)c1ccc(-c2cc(-c3ccccc3)[s+]c(-c3ccccn3)c2)cc1 [4-(4-N,N-dimethylaminophenyl-2-phenyl-6-(2-pyridyl)thiopyrylium chloride, reference compound]
T/C against melanoma ([1]; comparative example, xenografted human melanoma, very similar procedures, dose not stated, also listed in the Related Application): 227%
T/C against the ovarian carcinoma ([2]; comparative example, xenografted human ovarian cancer, very similar procedures, dose not stated, also listed in the Related Application): 340%

Nc1ccc(-c2cc(-c3ccc(N)cc3)[s+]c(-c3ccc(N)cc3)c2)cc1 [Compound T-2, 2,4,6-Tris(4-aminophenyl)thiopyrylium chloride]
IC50 (L1210 leukemia cells; Mus musculus, L1210, 48 h): 270 nM
IC50 ([4]; Homo sapiens): 190 nM

COc1ccc(-c2cc(-c3ccc(N)cc3)[s+]c(-c3ccc(N)cc3)c2)cc1 [Compound T-4, 2,6-Bis(4-aminophenyl)-4-(4-methoxyphenyl)-thiopyrylium chloride]
IC50 (L1210 leukemia cells; Mus musculus, L1210, 48 h): 10 nM
IC50 ([4]; Homo sapiens): 11 nM

— patent EP0315491A2, “Amino-substituted pyrylium dyes and uses thereof” (EASTMAN KODAK COMPANY (a New Jersey corporation), priority 1987, dated 1989)
